Earlier results as cited in patent publication US20120148652A1, “METHOD FOR INCORPORATING MEDICINE INTO A PLANT” (EARTH CHEMICAL CO., LTD., priority 2009, published 2012).

Conditions: 20° C., reference value

| SMILES | vapor pressure |
| --- | --- |
| CC(C)=CC1C(C(=O)OC(C#N)c2cccc(Oc3ccccc3)c2)C1(C)C (stereo not drawn) [d,d-T-cyphenothrin] | < 1.33×10^−7 hPa |
| CC1(C)[C@H](C=C(Cl)Cl)[C@H]1C(=O)OCc1c(F)c(F)cc(F)c1F [transfluthrin, Transfluthrin] | 4.0×10^−6 hPa |
